According to patent publication EP4603105A1, “PHARMACEUTICAL COMPOSITION CONTAINING CYCLIC COMPOUND HAVING SELECTIVE KRAS INHIBITORY EFFECT AGAINST HRAS AND NRAS” (CHUGAI SEIYAKU KABUSHIKI KAISHA, priority 2022, dated 2024):
pIC50: −log10 of the molar value. Where a SMILES comes first, the peptide text is derived from it. Bridges are numbered along the chain shown (N, C = ends). [ ]: non-standard residue; d: D form. The star is where a group is joined. hPhe(3-Cl-4-CF3) = N[C@@H](CCc1ccc(C(F)(F)F)c(Cl)c1)C(=O)O; NPrPhe(4-CF3) = CCCN[C@@H](Cc1ccc(C(F)(F)F)cc1)C(=O)O; NMeGly(cPent) = CN[C@H](C(=O)O)C1CCCC1; Pro(4,4-F2) = O=C(O)[C@@H]1CC(F)(F)CN1; NMeD = CN[C@@H](CC(=O)O)C(=O)O; NMeL = CN[C@@H](CC(C)C)C(=O)O; Morpholide = C1CN(*)CCO1; NMeA = CN[C@@H](C)C(=O)O; Ac5c = NC1(C(=O)O)CCCC1; Aze = O=C(O)[C@@H]1CCN1; Ac4c = NC1(C(=O)O)CCC1; NPrGly = CCCNCC(=O)O; Sar = CNCC(=O)O

What was measured:
[1] = test system: human lung cancer strain NCI-H441; type: cell-based
How it was run: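 Readout: […] after the ATP-based reagent. Compound: serial dilutions in dimethyl sulfoxide.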

HRAS wild-type protein = HRAS wild-type protein (Homo sapiens, UniProt P01112); assay: Binding to HRAS by surface plasmon resonance (SPR), KD and KD ratio to KRAS
How it was run: (§1)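 GDP-loaded biotinylated Avi-tag RAS proteins (E. coli-expressed) captured on a Biotin CAPture chip at ~100–300 RU; single-cycle kinetics at 30°C, 100 µL/min, 75 s injections of rising compound concentrations. HBS pH 7.4 running buffer with 1 mM DTT, 10 mM MgCl2, 10 µM GDP, 4% DMSO. KD from 1:1 binding fit.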

[2] = molecular target: GDP-bound NRAS wild-type protein (Homo sapiens, UniProt P01111); assay: Binding to NRAS by surface plasmon resonance (SPR), KD and KD ratio to KRAS
How it was run: as §1

[3] = ratio of the KD value with respect to HRAS wild-type protein to the KD value with respect to KRAS
[4] = ratio of the KD value with respect to GDP-bound NRAS wild-type protein to the KD value with respect to KRAS
[5] = ratio of KD for HRAS wild-type protein to KD for KRAS
[6] = ratio of KD for GDP-bound NRAS wild-type protein to KD for KRAS
[7] = ratio of KD value for HRAS wild-type protein to KD value for KRAS (SPR)
[8] = ratio of KD value for GDP-bound NRAS wild-type protein to KD value for KRAS (SPR)

Sequence of HRAS wild-type protein (P01112 whole entry): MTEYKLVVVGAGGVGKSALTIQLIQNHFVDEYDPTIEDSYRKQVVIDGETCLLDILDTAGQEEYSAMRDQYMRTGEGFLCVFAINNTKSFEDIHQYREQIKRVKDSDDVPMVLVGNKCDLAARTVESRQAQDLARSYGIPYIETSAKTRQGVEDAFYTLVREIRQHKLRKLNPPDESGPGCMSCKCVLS
Sequence of GDP-bound NRAS wild-type protein (P01111 whole entry): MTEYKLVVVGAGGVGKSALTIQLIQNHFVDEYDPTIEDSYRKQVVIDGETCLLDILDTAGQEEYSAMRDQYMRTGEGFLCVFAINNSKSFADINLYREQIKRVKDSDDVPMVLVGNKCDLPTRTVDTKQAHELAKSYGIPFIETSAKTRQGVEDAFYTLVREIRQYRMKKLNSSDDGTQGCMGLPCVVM

Row | Compound | pIC50 [1] | HRAS /KRAS (HRAS wild-type protein; [3]) | NRAS /KRAS [2, 4] | HRAS /KRAS (HRAS wild-type protein; [5]) | NRAS /KRAS [2, 6] | HRAS /KRAS (HRAS wild-type protein; [7]) | NRAS /KRAS [2, 8]
1 | CCCN1C(=O)[C@@H]2CCN2C(=O)CN(C)C(=O)[C@H]([C@@H](C)CC)NC(=O)[C@H](CC(C)C)N(C)C(=O)C[C@@H](C(=O)N(C)C)N(C)C(=O)[C@H](C2CCCC2)N(C)C(=O)C2(CCC2)NC(=O)[C@@H]2CCCN2C(=O)[C@H](CCc2ccc(C(F)(F)F)c(Cl)c2)NC(=O)CN(C)C(=O)[C@@H]1Cc1ccc(C(F)(F)F)cc1 [PP0441] ([NMeL]I[Sar][Aze][NPrPhe(4-CF3)][Sar][hPhe(3-Cl-4-CF3)]P[Ac4c][NMeGly(cPent)][NMeD]-NMe2; lactam N-11) | 8.47 | C (A compound having a KD ratio of 0.1 or more and less than 3 is denoted as C) | C (A compound having a KD ratio of 0.1 or more and less than 3 is denoted as C) | – | – | – | –
2 | CCO[C@@H]1C[C@H]2C(=O)NC3(CC(C)(C)C3)C(=O)N(C)[C@@H](C3CCCC3)C(=O)N(C)[C@H](C(=O)N(C)C)CC(=O)N(C)[C@@H](CC(C)C)C(=O)N[C@@H]([C@@H](C)CC)C(=O)N(C)CC(=O)N(C)[C@H]3C/C=C\CCN(C3=O)[C@@H](Cc3ccc(C4CC4)cc3)C(=O)N(C)CC(=O)N[C@@H](CCc3ccc(C(F)(F)F)c(OC)c3)C(=O)N2C1 [PP2691] | 8.46 | – | – | A (a compound having 10 or more and less than 20 is denoted as A) | AA (a compound having 20 or more is denoted as AA) | – | –
3 | CCCN1C(=O)CN(C)C(=O)[C@@H]2CCN2C(=O)[C@H]([C@@H](C)CC)NC(=O)[C@H](CC(C)C)N(C)C(=O)C[C@@H](C(=O)N2CCOCC2)N(C)C(=O)[C@H](C2CCCC2)N(C)C(=O)C2(CCCC2)NC(=O)[C@@H]2CC(F)(F)CN2C(=O)[C@H](CCc2ccc(C(F)(F)F)c(Cl)c2)NC(=O)CN(C)C(=O)[C@@H]1Cc1ccc(C(F)(F)F)cc1 [PP0403] ([NMeL]I[Aze][Sar][NPrPhe(4-CF3)][Sar][hPhe(3-Cl-4-CF3)][Pro(4,4-F2)][Ac5c][NMeGly(cPent)][NMeD]-Morpholide; lactam N-11) | 7.71 | B (a compound having 3 or more and less than 10 is denoted as B) | B (a compound having 3 or more and less than 10 is denoted as B) | – | – | – | –
4 | CC[C@H](C)[C@@H]1NC(=O)[C@H](CC(C)C)N(C)C(=O)C[C@@H](C(=O)N2CCOCC2)N(C)C(=O)[C@H](C2CCCC2)N(C)C(=O)C2(CCCC2)NC(=O)[C@@H]2CCCN2C(=O)[C@H](CCc2ccc(C(F)(F)F)c(Cl)c2)NC(=O)CN(C)C(=O)[C@H](Cc2ccc(C)cc2)N2CCCCC[C@@H](C2=O)N(C)C(=O)CN(C)C1=O [PP0317] | 7.49 | – | – | B (a compound having 3 or more and less than 10 is denoted as B) | B (a compound having 3 or more and less than 10 is denoted as B) | – | –
5 | CCCN1CC(=O)NC2(CCCC2)C(=O)N(C)[C@@H](C2CCCC2)C(=O)N(C)[C@H](C(=O)N2CCOCC2)CC(=O)N(C)[C@@H](CC(C)C)C(=O)N[C@@H]([C@@H](C)CC)C(=O)N2CC[C@H]2C(=O)N(C)CC(=O)N(CCC)[C@@H](Cc2ccc(C(F)(F)F)cc2)C(=O)N(C)CC(=O)N[C@@H](CCc2ccc(C(F)(F)F)c(Cl)c2)C1=O [PP0315] ([NMeL]I[Aze][Sar][NPrPhe(4-CF3)][Sar][hPhe(3-Cl-4-CF3)][NPrGly][Ac5c][NMeGly(cPent)][NMeD]-Morpholide; lactam N-11) | 6.83 | – | – | B (a compound having 3 or more and less than 10 is denoted as B) | B (a compound having 3 or more and less than 10 is denoted as B) | – | –
6 | CC[C@H](C)[C@@H]1NC(=O)[C@H](CC(C)C)N(C)C(=O)C[C@@H](C(=O)N2CCOCC2)N(C)C(=O)[C@H](C2CCCC2)N(C)C(=O)C2(CCCC2)NC(=O)[C@@H]2CC(=O)CN2C(=O)[C@H](CCc2cc(F)c(C(F)(F)F)c(F)c2)NC(=O)CN(C)C(=O)[C@H](Cc2ccc(C(F)(F)F)cc2)N2CCCCC[C@@H](C2=O)N(C)C(=O)CN(C)C1=O [PP0493] | 6.20 | B (a compound having 3 or more and less than 10 is denoted as B) | B (a compound having 3 or more and less than 10 is denoted as B) | – | – | – | –
7 | CCCN1C(=O)[C@@H]2CCN2C(=O)[C@H](C)N(C)C(=O)[C@H]([C@@H](C)CC)NC(=O)[C@H](CC(C)C)N(C)C(=O)C[C@@H](C(=O)N2CCOCC2)N(C)C(=O)[C@H](C2CCCC2)N(C)C(=O)C2(CCCC2)NC(=O)CN(C)C(=O)[C@H](CCc2ccc(C(F)(F)F)c(Cl)c2)NC(=O)CN(C)C(=O)[C@@H]1Cc1ccc(C(F)(F)F)cc1 [PP0287] ([NMeL]I[NMeA][Aze][NPrPhe(4-CF3)][Sar][hPhe(3-Cl-4-CF3)][Sar][Ac5c][NMeGly(cPent)][NMeD]-Morpholide; lactam N-11) | 7.84 | – | – | C (A compound having a KD ratio of 0.1 or more and less than 3 is denoted as C) | C (A compound having a KD ratio of 0.1 or more and less than 3 is denoted as C) | – | –

More lines, main results first:

Row | pIC50 [1] | Compound | HRAS /KRAS (HRAS wild-type protein; [3]) | NRAS /KRAS [2, 4] | HRAS /KRAS (HRAS wild-type protein; [5]) | NRAS /KRAS [2, 6] | HRAS /KRAS (HRAS wild-type protein; [7]) | NRAS /KRAS [2, 8]
8 | 6.90 | CCCO[C@H]1CCN2C(=O)[C@H](CCc3cc(F)c(C(F)(F)F)c(F)c3)NC(=O)CN(C)C(=O)[C@H](Cc3ccc(C(F)(F)F)cc3)N3CCCCC[C@@H](C3=O)N(C)C(=O)CN(C)C(=O)[C@H]([C@@H](C)CC)NC(=O)[C@H](CC(C)C)N(C)C(=O)C[C@@H](C(=O)N3CCOCC3)N(C)C(=O)[C@H](C3CCCC3)N(C)C(=O)C3(CCC3)NC(=O)[C@H]12 [PP1069] | – | – | B (a compound having 3 or more and less than 10 is denoted as B) | A (a compound having 10 or more and less than 20 is denoted as A) | – | –
9 | 7.04 | CCO[C@@H]1C[C@H]2C(=O)NC3(CCC3)C(=O)N(C)[C@@H](C3CCCC3)C(=O)N(C)[C@H](C(=O)N3CCOCC3)CC(=O)N(C)[C@@H](CC(C)C)C(=O)N[C@@H]([C@@H](C)CC)C(=O)N(C)CC(=O)N(C)[C@H]3CCCCCN(C3=O)[C@@H](Cc3ccc(F)cc3OC)C(=O)N(C)CC(=O)N[C@@H](CCc3cc(F)c(C(F)(F)F)c(F)c3)C(=O)N2C1 [PP0924] | – | – | B (a compound having 3 or more and less than 10 is denoted as B) | B (a compound having 3 or more and less than 10 is denoted as B) | – | –
10 | 8.33 | CCO[C@@H]1C[C@H]2C(=O)NC3(CC(C)(C)C3)C(=O)N(C)[C@@H](C3CCCC3)C(=O)N(C)[C@H](C(=O)N(C)CC)CC(=O)N(C)[C@H]3CCCC/C=C/c4ccc(cc4)C[C@@H](C(=O)N(C)CC(=O)N[C@@H](CCc4ccc(C(F)(F)F)c(OC)c4)C(=O)N2C1)N1CC/C=C\C[C@@H](C1=O)N(C)C(=O)CN(C)C(=O)[C@H]([C@@H](C)CC)NC3=O [PP1830] | – | – | – | – | B (a compound having 3 or more and less than 10 is denoted as B) | A (a compound having 10 or more and less than 20 is denoted as A)
11 | 8.39 | C#CCN1CC(=O)N(C)[C@H]2C/C=C\CCN(C2=O)[C@@H](Cc2ccc(C)cc2)C(=O)N(C)CC(=O)N[C@@H](CCc2cc(F)c(C(F)(F)F)c(F)c2)C(=O)N2C[C@H](OCC)C[C@H]2C(=O)NC2(CC(C)(C)C2)C(=O)N(C)[C@@H](C2CCCC2)C(=O)N(C)[C@H](C(=O)N(C)C)CC(=O)N(C)[C@@H](CC(C)C)C(=O)N[C@@H]([C@@H](C)CC)C1=O [PP2052] | A (a compound having 10 or more and less than 20 is denoted as A) | A (a compound having 10 or more and less than 20 is denoted as A) | – | – | – | –
12 | 8.46 | CCO[C@@H]1C[C@H]2C(=O)N(C)C3(CCCC3)C(=O)N(C)[C@@H](C3CCCC3)C(=O)N(C)[C@H](C(=O)N(C)C)CC(=O)N(C)[C@@H](CC)C(=O)N[C@@H]([C@@H](C)CC)C(=O)N(C)CC(=O)N(C)[C@H]3C/C=C\CCN(C3=O)[C@@H](Cc3ccc(C(F)(F)F)cc3)C(=O)N(C)CC(=O)N[C@@H](CCc3cc(F)c(C(F)(F)F)c(F)c3)C(=O)N2C1 [PP1804] | – | – | – | – | A (a compound having 10 or more and less than 20 is denoted as A) | A (a compound having 10 or more and less than 20 is denoted as A)
13 | 8.14 | C#CC[C@H]1C(=O)N[C@@H]([C@@H](C)CC)C(=O)N(C)CC(=O)N(C)[C@H]2C/C=C\CCN(C2=O)[C@@H](Cc2ccc(C(F)(F)F)cc2)C(=O)N(C)CC(=O)N[C@@H](CCc2cc(F)c(C(F)(F)F)c(F)c2)C(=O)N2C[C@H](OCC)C[C@H]2C(=O)NC2(CCC2)C(=O)N(C)[C@@H](C2CCCC2)C(=O)N(C)[C@H](C(=O)N(C)CCC)CC(=O)N1C [PP1703] | – | – | – | – | A (a compound having 10 or more and less than 20 is denoted as A) | A (a compound having 10 or more and less than 20 is denoted as A)
14 | 7.44 | CCO[C@@H]1C[C@H]2C(=O)NC3(CCC3)C(=O)N(C)[C@@H](C3CCCC3)C(=O)N(C)[C@H](C(=O)N(C)CC)CC(=O)N(C)[C@@H](CC)C(=O)N[C@@H]([C@@H](C)CC)C(=O)N(C)CC(=O)N(C)[C@H]3C/C=C\CCN(C3=O)[C@@H](Cc3ccc(C)cc3)C(=O)N(C)CC(=O)N[C@@H](CCc3ccc(C(F)(F)F)c(OC)c3)C(=O)N2C1 [PP1869] | – | – | – | – | A (a compound having 10 or more and less than 20 is denoted as A) | A (a compound having 10 or more and less than 20 is denoted as A)
